From patent US20180007908A1, “Pesticidal Mixtures” (BASF SE, priority 2007, published 2018) come the findings set out here.

What all share (type): cell-based
Experiment [1] deals with Botrytis cinerea. Put plainly: Use Example No. 6: activity against gray mold Botrytis cinerea in the microtiter test (Botrci). The settings on record: 168 h, day 7 post-inoculation, efficacy as % of untreated control, read-out: Observed activity (%).
For experiment [2], the system named is Pyricularia oryzae. The experiment is described as follows: microbe, parasite or virus in culture. The note with it: 168 h, read-out: Observed activity (%).
Experiment [3] concerns Pyricularia oryzae. Put plainly: microbe, parasite or virus in culture. The note with it: 168 h, read-out: Observed activity (%). The source holds these as a separate data set.

For `COC(=O)N(OC)c1ccccc1COc1ccn(-c2ccc(Cl)cc2)n1` [pyraclostrobin], in experiment [1], the inhibition at 0.016 ppm was found to be 4%. Besides, the inhibition at 0.001 ppm in experiment [2] stood at 31%.

As for `N#Cc1nn(-c2c(Cl)cc(C(F)(F)F)cc2Cl)c(N)c1[S+]([O-])C(F)(F)F` (stereo not drawn) [fipronil], in experiment [3], the inhibition at 2 ppm worked out at 5%.
